Key:
MIN6 cells [1] = assay: Insulin secretion of MIN6 cells in KRB, radioimmunoassay (Example 4); type: cell-based, rat; conditions: for high-glucose-stimulated insulin secretion: preincubated 30 minutes, stimulated 1 hour with 16.7 mM glucose
islets of Langerhans = assay: Insulin secretion from isolated islets of Langerhans; type: cell-based, rats; conditions: for insulin secretion in islets of Langerhans (insulin secretion percentage): low glucose 3.3 mM, 200 nM glibenclamide, 10 µM olomoucine, fig. 5; for insulin secretion: 10 µM, Ringer solution with a high glucose concentration, fig. 4
Procedure: In accordance with Goto et al. (Transplantaion, vol. 43, pp. 725 to 730, 1987), islets of Langerhans were isolated from 6-week-old male Wister rats. The rats were etherized so as to be subjected to thoracotomy. The common bile duct of each rat was removed and a collagenase solution (320 U/ml, Sigma) was slowly injected into the pancreas. Then, the swollen pancreas was excised. The collagenase-containing pancreas was digested at 37°C in a water bath for 30 minutes, followed by dispersion with the use of a pipet. Thereafter, islets of Langerhans were isolated based on the concentration gradient of a Ficoll solution (Amersham Pharmacia). The islets of Langerhans were incubated while being kept at 37°C for 30 minutes in a Ringer solution (119 mM sodium chloride, 4.74 mM potassium chloride, 1.19 mM sodium dihydrogen phosphate, 25 mM sodium bicarbonate, 10 mM HEPES, 2.54 mM calcium chloride, 1.19 mM magnesium chloride, and 0.2% BSA) saturated with a mixed gas of 95% O2 and 5% CO2.
30 minutes after replacement, insulin contained in each stimulation solution was detected using an insulin detection kit (Ab Bead Insulin, Eiken Chemical Co., Ltd.) in accordance with protocols of the kit. The experiment was conducted for each concentration group (n = 6).
30 minutes after replacement, insulin contained in each stimulation solution was using an insulin detection kit (Ab Bead Insulin, Eiken Chemical Co., Ltd.) in accordance with protocols for the kit.
Then, controls (n = 6), samples A (n = 6), samples B (n = 6), and samples C (n = 6) were prepared. […] Further, islets of Langerhans were subjected to ultrasonication for cell disruption, and insulin contents of islets of Langerhans were detected using an insulin detection kit (Ab Bead Insulin, Eiken Chemical Co., Ltd.) in accordance with protocols for the kit in a manner similar to that used above.
In addition, the insulin secretion percentage was calculated by the following formula. Insulin secretion percentage; = (Amount of insulin secreted(μU/ml))/(Amount of insulin in islets of Langerhans(μU/ml)) × 100(%) [formula]

MIN6 cells [2] = assay: Ca2+ imaging (fura-2) in MIN6 cells; type: cell-based, rat; conditions: 50 µM olomoucine
Procedure: MIN6 cells were cultured in a DMEM containing 15% fetal bovine serum, 25 mM glucose, […] 2-mercaptoethanol, and 2 mM glutamine (Lilla, V. et al. Endocrinology 144, 1368-1379 (2003); and Minami, K. et al. Am. J. Physiol. Endocrinol. Metab. 279, 773-781 (2000)). The cells (1 × 10^6) were seeded on a 35-mm glass bottom dish (IWAKI, Tokyo, Japan), followed by cell proliferation for 48 hours. For Ca^2+ imaging, the cells were preincubated at 37°C for 2 hours in a modified Krebs-Ringer bicarbonate HEPES buffer solution (KRB: 125 mM Nacl, 4.74 mM KCl, 1 mM CaCl2, […] KH2PO4, 5 mM NaHCO3, 25 mM HEPES (pH 7.4), and 0.1% BSA) containing 2.8 mM glucose. […] The resulting solution was replaced with KRB containing 17.6 mM glucose or KRB containing 100 nM glibenclamide. The Ca^2+ level of the cells was using an Axiovert 200 inverted microscope (Carl Zeiss Microlmaging) by a dual excitation wavelength method (340/380).
After washing, the cells were stimulated with 17.6 mM glucose (figs. 7a-1 and 7a-2) or 100 nM glibenclamide (figs. 7b-1 and 7b-2). Ca^2+ concentrations were presented as percentages of 340/380 nm fluorescent emission. The graphs (fgs. 7a-1 and 7b-1) show representative traces of changes in Ca^2+ concentration. The graphs (figs. 7a-2 and 7b-2) show the maximum Ca^2+ influxes. Data for each of 20 to 30 cells were collected after each experiment. The mean value of the total values was calculated and normalized every 3 to 4 experiments (*P < 0.01).

MIN6 cells [3] = assay: Insulin secretion of MIN6 cells in Ringer solution (Example 3); type: cell-based, rat; conditions: 17.6 mM glucose, 20 µM, 2 hours, fig. 3
Procedure: MIN6 cells capable of secreting insulin (provided by Professor Susumu Seino, Doctral Program in Advanced Biomedical Applications, Department of Cellular and Molecular Medicine, Graduate School of Medicine, Chiba University, 1-33, Yayoi-cho, Inage-ku, Chiba-shi, Chiba, Japan) were cultured in accordance with the method of Mae et al. (American Journal of Physiological Endocrinal Metabolism, 2000, vol. […], pp. 773 to 781). MIN6 cells (5 × 10^5) were in a DMEM medium (GIBCO) and on a 35-mm culture dish (Corning Incorporated), followed by culture for 2 days in an incubator (5% CO2, SANYO).
After culture for 2 hours, insulin contained in medium was detected using an insulin detection kit (Ab Insulin, Eiken Chemical Co., Ltd.) in accordance with protocols for the kit.

L-VDCC = assay: Whole-cell Ca2+ currents via VDCCs of MIN6 cells (electrophysiology); type: cell-based, rat; conditions: 50 µM olomoucine
[4] = system: α1C subunit at Ser783 of L-VDCC; assay: Phosphorylation of Ser783 of the L-VDCC α1C subunit in MIN6 cells (immunoprecipitation, Western blotting); type: cell-based, rat; conditions: MIN6 cells treated with 50 µM olomoucine, fig. 8d
Procedure: Recombinant cDNA encoding LoopII·III of a human α1C subunit of VDCC was subcloned into pGEX6P (Amersham Bioscience). Serine783 was mutated into alanine according to the manufacturer's instructions (Stratagene). Purified recombinant proteins were phosphorylated in vitro with the use of Cdk5/p35 (Upstate) by a conventional method (Tomizawa, K. et al. J. Cell. Biol. 163, 813-824 (2003)). […] The expression of the phosphorylated α1C subunit at Ser783 was measured using phosphorylation-specific antibodies obtained from serum of a rabbit to which CLARTApSPEKK peptide had been injected. The total amount of the subunits was detected by Western blotting analysis with the use of anti-α1C subunit antibodies (Chemicon).
Immunoprecipitation of Cav1.2 was carried out. Phosphorylation of serine 783 was measured by Western blotting.

[5] = system: diabetes mouse models KK-Ay; assay: Hypoglycemic effects in diabetes mouse models KK-Ay; type: in vivo; conditions: KK-Ay mice, fig. 13
Procedure: 8-week-old ale KK-Ay mice (32 individuals, CLEA Japan, Inc.) were divided into groups (8 individuals each) with the proviso that there would be no differences among groups in terms of blood glucose levels, Hypoglycemic effects of roscovitine (LC Laboratories), which is a CDK5 inhibitor, were examined.
In order to prepare roscovitine at doses of 1 mg/kg, 10 mg/kg, and 100 mg/kg, a suspension (0.5% methylcellulose/physiological saline solution) was used. Then, subcutaneous administration of roscovitine was carried out once daily for 2 consecutive weeks. A solvent alone was administered to a control group. Blood glucose levels were measured one day before day 0 and on days 3, 7, 10, and 14 with the use of a blood glucose monitor (Free Style, NIPRO).
In fig. 13, the unit of the vertical axis is indicated by "mg/dL." In fig. 14, the unit of the vertical axis is indicated by "g."

Cdk5 = Cdk5 (Homo sapiens, UniProt Q00535); conditions: cited from earlier work
Cdk5, sequence (Q00535 whole entry, species assumed): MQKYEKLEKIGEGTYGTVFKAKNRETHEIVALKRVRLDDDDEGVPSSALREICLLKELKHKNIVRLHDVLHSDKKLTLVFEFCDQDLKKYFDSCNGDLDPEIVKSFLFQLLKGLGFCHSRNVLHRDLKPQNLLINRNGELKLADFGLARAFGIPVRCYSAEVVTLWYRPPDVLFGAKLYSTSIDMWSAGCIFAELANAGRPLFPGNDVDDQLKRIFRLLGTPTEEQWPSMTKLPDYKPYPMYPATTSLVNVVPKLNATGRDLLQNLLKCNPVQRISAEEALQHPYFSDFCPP
Cdk5, sequence (Q15078 whole entry partner, species assumed): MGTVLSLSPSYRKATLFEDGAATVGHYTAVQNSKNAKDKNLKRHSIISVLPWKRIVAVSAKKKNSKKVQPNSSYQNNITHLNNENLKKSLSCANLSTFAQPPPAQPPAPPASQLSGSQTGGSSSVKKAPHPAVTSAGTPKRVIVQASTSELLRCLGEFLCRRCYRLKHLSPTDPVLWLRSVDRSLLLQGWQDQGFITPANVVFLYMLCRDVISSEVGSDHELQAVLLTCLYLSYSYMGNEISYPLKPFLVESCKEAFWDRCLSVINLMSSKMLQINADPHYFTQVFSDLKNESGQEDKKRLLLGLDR

CC1=NS(=O)(=O)c2cc(Cl)ccc2N1 [diazoxide]
Olomoucine-dependant promotion of high-glucose-stimulated insulin secretion (MIN6 cells [1]; 100 µM diazoxide, 50 µM olomoucine, 17.6 mM glucose, fig. 6g): completely suppressed

C=C[C@@]1(C)CC(=O)[C@]2(O)[C@@]3(C)[C@@H](O)CCC(C)(C)[C@@H]3[C@H](O)[C@H](OC(C)=O)[C@@]2(C)O1 [forskolin]
forskolin-stimulated insulin secretion (MIN6 cells [1]; 10 µM forskolin, 50 µM olomoucine, KRB 2.8 mM glucose, fig. 6h, unit not given): 122.7 ± 9.3

COc1ccc(Cl)cc1C(=O)NCCc1ccc(S(=O)(=O)NC(=O)NC2CCCCC2)cc1 [glibenclamide]
insulin secretion in islets of Langerhans (insulin secretion percentage) (islets of Langerhans; 30 minutes): significant increase in insulin secretion
insulin secretion (MIN6 cells [1]; KRB high glucose 17.6 mM, fig. 6f): 412.5 ± 35.7 µg/h
insulin secretion (MIN6 cells [1]; KRB low glucose 2.8 mM, fig. 6e): 116.3 ± 1.0 µg/h

Cn1cnc2c(NCc3ccccc3)nc(NCCO)nc21 [olomoucine]
insulin secretion (islets of Langerhans): significantly promoted insulin secretion
insulin secretion of islets of Langerhans (islets of Langerhans; 3.3 mM glucose (low), olomoucine at different concentrations, 30 minutes, fig. 1): had no influence at all
insulin secretion levels (islets of Langerhans; 17.3 mM glucose (high), olomoucine at different concentrations, 30 minutes, versus absence of olomoucine, fig. 2): significantly increased
secretion at low glucose levels (islets of Langerhans; isolated islets of Langerhans, fig. 9a): did not influence
insulin secretion in islets of Langerhans (insulin secretion percentage) (islets of Langerhans; 30 minutes): did not influence insulin secretion
glucose-stimulated insulin secretion in isolated islets of Langerhans (islets of Langerhans; olomoucine at concentrations shown in fig. 9a): promoted glucose-stimulated insulin secretion in a dose-dependent manner
Ca2+ influxes in the absence of glucose and glibenclamide (MIN6 cells [2]): did not influence
Ca2+ influxes induced by glibenclamide (MIN6 cells [2]; 100 nM glibenclamide, maximum Ca2+ influx normalized, figs. 7b-1 and 7b-2): 129 ± 4.5%
Ca2+ influxes induced by glucose (MIN6 cells [2]; 17.6 mM glucose, maximum Ca2+ influx normalized, figs. 7a-1 and 7a-2): 114.4 ± 2.1%
insulin secretion of MIN6 cells (MIN6 cells [3]): action of promoting insulin secretion
insulin secretion under low glucose conditions (MIN6 cells [1]; 2.8 mM glucose, 1 hour, fig. 6c): insulin secretion was not promoted
insulin secretion induced by forskolin (MIN6 cells [1]; effect of 50 µM olomoucine, 10 µM forskolin, 2.8 mM glucose, P > 0.05, fig. 6h): did not influence
insulin secretion induced by glibenclamide (MIN6 cells [1]; effect of olomoucine, low glucose 2.8 mM, fig. 6e): significantly promoted
high-glucose-stimulated insulin secretion (MIN6 cells [1]; fig. 6c): promoted high-glucose-stimulated insulin secretion in a dose-dependent manner
Peak Ca2+ currents (L-VDCC; depolarization to 10 mV, control cells -15.1 ± 1.67 A/F): -20.1 ± 1.59 A/F
inward Ca2+ currents (L-VDCC; step pulses from -40 mV to +60 mV, fig. 7c): enhanced inward Ca^2+ currents
phosphorylation of Ser783 [4]: decrease in phosphorylation

CC[C@H](CO)Nc1nc(NCc2ccccc2)c2ncn(C(C)C)c2n1 [roscovitine]
insulin secretion of MIN6 cells (MIN6 cells [3]): promoted
high-glucose-stimulated insulin secretion (MIN6 cells [1]; fig. 6c): also confirmed
blood glucose levels ([5]; 1 mg/kg subcutaneous once daily for 2 consecutive weeks): obvious hypoglycemic effects were not observed
blood glucose levels ([5]; 10 mg/kg subcutaneous once daily for 2 consecutive weeks): obvious hypoglycemic effects were not observed
blood glucose levels ([5]; 100 mg/kg subcutaneous once daily for 2 consecutive weeks): statistically significant decreases

iso-olomoucine
insulin secretion (islets of Langerhans): did not promote insulin secretion at all
Cdk5 inhibitory effect (Cdk5): does not have a Cdk5 inhibitory effect
insulin secretion (MIN6 cells [1]; 20 µM, fig. 6d): did not influence insulin secretion

Reference: patent EP1837033A1, “REMEDY FOR DIABETES CONTAINING Cdk5 INHIBITOR” (Tomizawa, Kazuhito, priority 2004, dated 2006)
